Experimental findings from ChEMBL document CHEMBL1153327, “M3 muscarinic acetylcholine receptor antagonists: SAR and optimization of bi-aryl amines” (Bioorg Med Chem Lett, 2009) are described below.

Calls of active or inactive are those of the source. The rule behind the calls is not given here.

In one data set the target is T1, Muscarinic acetylcholine receptor M1 (Homo sapiens, UniProt P11229).
T1 sequence (P11229 whole entry): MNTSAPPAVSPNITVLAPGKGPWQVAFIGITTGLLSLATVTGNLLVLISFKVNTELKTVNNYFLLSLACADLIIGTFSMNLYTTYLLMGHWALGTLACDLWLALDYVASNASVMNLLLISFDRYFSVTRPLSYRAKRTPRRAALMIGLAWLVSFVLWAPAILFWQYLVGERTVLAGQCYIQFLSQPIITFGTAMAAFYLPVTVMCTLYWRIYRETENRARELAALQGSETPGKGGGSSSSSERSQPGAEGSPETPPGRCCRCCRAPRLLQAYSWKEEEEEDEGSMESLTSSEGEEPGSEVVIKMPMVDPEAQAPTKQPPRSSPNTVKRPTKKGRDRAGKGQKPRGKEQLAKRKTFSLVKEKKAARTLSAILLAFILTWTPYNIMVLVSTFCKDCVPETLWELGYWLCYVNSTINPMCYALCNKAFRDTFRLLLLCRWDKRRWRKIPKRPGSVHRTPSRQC
In words: Antagonist activity at human recombinant muscarinic M1 receptor expressed in CHO cells assessed as inhibition of acetylcholine-induced calcium mobilization by FLIPR assay. Particulars: read-out: pA2 (converted). Format: functional, cell-based. For orientation: Calcium assays in cells follow changes in intracellular calcium, usually with a dye or a luminescent sensor.
As to `C[C@H]1CN(Cc2cccc(-c3cc(CNC(=O)c4cccc(CC5CCNCC5)c4)ccc3F)c2)CCN1`, the Kb is 0.2 nM.

System in a further data set: not listed separately
In words: Permeability across artificial phospholipid membrane at pH 7.05 by HPLC. It is filed as ADME. Particulars: not told, read-out: permeability.
As for `C[C@H]1CN(Cc2cccc(-c3cc(CNC(=O)c4cccc(CN5CC[N+](C)(C)CC5)c4)ccc3F)c2)CCN1.[I-]`, the Papp is less than 0.3 ×10⁻⁶ cm/s.

The target of another data set is T2, Muscarinic acetylcholine receptor M3 (Homo sapiens, UniProt P20309). Description: Antagonist activity at human recombinant muscarinic M3 receptor expressed in CHO cells assessed as inhibition of acetylcholine-induced calcium mobilization by FLIPR based single concentration kinetic assay. It is filed as functional, cell-based. Particulars: read-out: pA2 (converted).
T2 sequence (P20309 whole entry): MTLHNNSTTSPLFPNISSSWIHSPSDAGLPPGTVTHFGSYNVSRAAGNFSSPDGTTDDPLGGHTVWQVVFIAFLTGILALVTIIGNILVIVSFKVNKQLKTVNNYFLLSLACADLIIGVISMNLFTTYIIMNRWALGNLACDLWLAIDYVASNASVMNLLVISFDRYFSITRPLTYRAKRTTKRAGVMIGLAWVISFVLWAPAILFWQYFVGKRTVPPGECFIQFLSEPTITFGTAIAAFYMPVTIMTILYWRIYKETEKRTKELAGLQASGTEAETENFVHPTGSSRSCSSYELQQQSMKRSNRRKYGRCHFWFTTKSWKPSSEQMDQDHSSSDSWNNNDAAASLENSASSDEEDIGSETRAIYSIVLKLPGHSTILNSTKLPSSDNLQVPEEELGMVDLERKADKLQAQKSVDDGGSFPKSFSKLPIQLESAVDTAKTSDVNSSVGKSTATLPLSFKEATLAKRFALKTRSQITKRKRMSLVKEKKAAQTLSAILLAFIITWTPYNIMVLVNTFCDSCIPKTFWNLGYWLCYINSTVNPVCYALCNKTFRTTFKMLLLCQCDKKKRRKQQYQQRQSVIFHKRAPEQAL
On to `C[C@H]1CN(Cc2cccc(-c3cc(CNC(=O)c4cccc(CN5CCCCC5)c4)ccc3F)c2)CCN1`, for which the Kb was 0.631 nM. Same read-out and setting: the result for `C[C@H]1CN(Cc2cccc(-c3cc(CNC(=O)c4cccc(CN5CC[N+](C)(C)CC5)c4)ccc3F)c2)CCN1.[I-]` reads 0.158 nM; that for `C[C@H]1CN(Cc2cccc(-c3cc(CNC(=O)c4cccc(CN5CC[N+]6(CCCCC6)CC5)c4)ccc3F)c2)CCN1`, 0.126 nM; that for `C[C@H]1CN(Cc2cccc(-c3cc(CNC(=O)c4cccc(CN(C)C)c4)ccc3F)c2)CCN1`, 3.16 nM. For `C[C@H]1CN(Cc2cccc(-c3cc(CNC(=O)c4cccc(CN5CC[N+](C)(Cc6ccccc6)CC5)c4)ccc3F)c2)CCN1`, the Kb is 0.0794 nM. Same read-out and setting: the value for `C[C@H]1CN(Cc2cccc(-c3cc(CNC(=O)c4cccc(CN5CCN(CCCO)CC5)c4)ccc3F)c2)CCN1` was 0.0631 nM; that for `C[C@H]1CN(Cc2cccc(-c3cc(CNC(=O)c4cccc(C[N+]5(C)CCNCC5)c4)ccc3F)c2)CCN1` was 3.16 nM; that for `C[C@H]1CN(Cc2cccc(-c3cc(CNC(=O)c4cccc(CN5CCN(C)CC5)c4)ccc3F)c2)CCN1` was 0.0316 nM.

In the case of `C[C@H]1CN(Cc2cccc(-c3cc(CNC(=O)c4cccc(CN5CCOCC5)c4)ccc3F)c2)CCN1`, the Kb was 0.126 nM. Still for that read-out and setting: the result for `CCC[N+]1(C)CCN(Cc2cccc(C(=O)NCc3ccc(F)c(-c4cccc(CN5CCN[C@@H](C)C5)c4)c3)c2)CC1` reads 0.1 nM. The same measure, in the same setting: the value for `C[C@H]1CN(Cc2cccc(-c3cc(CNC(=O)c4cccc(CN5CCCN(C)CC5)c4)ccc3F)c2)CCN1` was 0.251 nM; that for `C[C@H]1CN(Cc2cccc(-c3cc(CNC(=O)c4cccc(CN5CCN(C=O)CC5)c4)ccc3F)c2)CCN1` was 0.0794 nM; that for `C[C@H]1CN(Cc2cccc(-c3cc(CNC(=O)c4cccc(CN(C)CCCN(C)C)c4)ccc3F)c2)CCN1` was 0.2 nM.

In the next data set the target is T2, Muscarinic acetylcholine receptor M3. In words: Antagonist activity at human recombinant muscarinic M3 receptor expressed in CHO cells assessed as inhibition of acetylcholine-induced calcium mobilization by FLIPR assay. Format: functional, cell-based.
Conditions: not given
As for `COc1ccccc1C(=O)NCc1cccc(-c2cccc(CN3CCNCC3)c2)c1`, the IC50 (commonly the concentration at which inhibition is half-maximal) is 501 nM. Same read-out and setting: the value for `O=C(NCc1cccc(-c2cccc(CN3CCNCC3)c2)c1)c1cccc(O)c1` was 2000 nM; that for `O=C(NCc1ccc(F)c(-c2cccc(CN3CCNCC3)c2)c1)c1ccc2c(c1)OCO2` was 6.31 nM; that for `O=C(NCc1cccc(-c2ccc(F)c(CN3CCNCC3)c2)c1)c1ccc2c(c1)OCO2` was 200 nM. Still for that read-out and setting: the result for `N#Cc1cccc(C(=O)NCc2cccc(-c3cccc(CN4CCNCC4)c3)c2)c1` reads 50.1 nM; that for `CN1CCN(Cc2cccc(C(=O)NCc3cccc(-c4cccc(CN5CCNCC5)c4)c3)c2)CC1`, 3.98 nM. Turning to `COc1cccc(C(=O)NCc2cccc(-c3cccc(CN4CCNCC4)c3)c2)c1`, the IC50 is 79.4 nM.

Consider `O=C(NCc1cccc(-c2cccc(CN3CCNCC3)c2)c1)c1cccc(F)c1`, for which the IC50 is 794 nM. Same read-out and setting: the result for `O=C(NCc1cccc(-c2cccc(CN3CCCNCC3)c2)c1)c1ccc2c(c1)OCO2` reads 316 nM; that for `COC(=O)c1cccc(C(=O)NCc2cccc(-c3cccc(CN4CCNCC4)c3)c2)c1`, 20 nM; that for `CCOc1cccc(C(=O)NCc2cccc(-c3cccc(CN4CCNCC4)c3)c2)c1`, 10 nM. Still for that read-out and setting: the value for `O=C(NCc1cc(-c2cccc(CN3CCNCC3)c2)ccc1F)c1ccc2c(c1)OCO2` was 251 nM.

In the case of `COc1ccc(C(=O)NCc2cccc(-c3cccc(CN4CCNCC4)c3)c2)cc1`, the IC50 was 501 nM.

As for `Nc1cccc(C(=O)NCc2cccc(-c3cccc(CN4CCNCC4)c3)c2)c1`, the half-inhibitory concentration (IC50) is 2000 nM. Still for that read-out and setting: the result for `CC(=O)c1cccc(C(=O)NCc2cccc(-c3cccc(CN4CCNCC4)c3)c2)c1` reads 10 nM; that for `C[C@H]1CN(Cc2ccc(-c3cccc(CNC(=O)c4ccc5c(c4)OCO5)c3)s2)CCN1`, 501 nM; that for `O=C(NCc1cccc(-c2cccc(CN3CCNCC3)c2)c1)c1cccc(C(F)(F)F)c1`, 50.1 nM. The same measure, in the same setting: the value for `O=C(NCc1cccc(-c2cccc(C(=O)N3CCNCC3)c2)c1)c1ccc2c(c1)OCO2` was 5010 nM; that for `CCN1CCN(Cc2cccc(-c3cccc(CNC(=O)c4ccc5c(c4)OCO5)c3)c2)CC1` was 1580 nM; that for `Cc1ccc(-c2cccc(CN3CCNCC3)c2)cc1CNC(=O)c1ccc2c(c1)OCO2` was 3160 nM. Still for that read-out and setting: the value for `Cc1cccc(C(=O)NCc2cccc(-c3cccc(CN4CCNCC4)c3)c2)c1` was 251 nM; that for `C[N+]1(C)CCN(Cc2cccc(-c3cccc(CNC(=O)c4ccc5c(c4)OCO5)c3)c2)CC1` was 2510 nM; that for `O=C(NCc1cccc(-c2cccc(CN3CCNCC3)c2)c1)c1cccc(OC(F)(F)F)c1` was 501 nM. As to `O=C(NCc1cccc(-c2cccc(CN3CCNCC3)c2)c1)c1cccc(Cl)c1`, the IC50 was 100 nM. Consider `O=C(NCc1cccc(-c2cccc(CN3CCNCC3)c2)c1)c1cccc(Oc2ccccc2)c1`, for which the IC50 was 1260 nM.

Turning to `CCc1cccc(C(=O)NCc2cccc(-c3cccc(CN4CCNCC4)c3)c2)c1`, the half-inhibitory concentration (IC50) was 316 nM. Regarding `O=C(NCc1cccc(-c2cccc(CN3CCNCC3)c2)c1)c1ccccc1Cl`, the IC50 was 1000 nM. With `O=C(NCc1cccc(-c2cccc(CN3CCOCC3)c2)c1)c1ccc2c(c1)OCO2`, the 50% inhibitory concentration (IC50) is greater than 10000 nM.

As for `O=C(NCc1cccc(-c2cccc(CN3CCCCC3)c2)c1)c1ccc2c(c1)OCO2`, the half-inhibitory concentration (IC50) was 6310 nM. Take `C[C@@H]1CN(Cc2cccc(-c3cccc(CNC(=O)c4ccc5c(c4)OCO5)c3)c2)CCN1`: the half-inhibitory concentration (IC50) was 50.1 nM. Same read-out and setting: the value for `O=C(NCc1cccc(-c2cccc(CN3CCNCC3)c2)c1)c1ccc(Cl)cc1` was 316 nM; that for `Cc1c(CNC(=O)c2ccc3c(c2)OCO3)cccc1-c1cccc(CN2CCNCC2)c1` was greater than 10000 nM.

Turning to `C[N+]1(Cc2cccc(-c3cccc(CNC(=O)c4ccc5c(c4)OCO5)c3)c2)CCNCC1`, the half-inhibitory concentration (IC50) was greater than 10000 nM.

As to `COc1ccc(CN2CCNCC2)cc1-c1cccc(CNC(=O)c2ccc3c(c2)OCO3)c1`, the IC50 is 1260 nM. As for `CS(=O)(=O)c1cccc(C(=O)NCc2cccc(-c3cccc(CN4CCNCC4)c3)c2)c1`, the half-inhibitory concentration (IC50) is 20 nM. Still for that read-out and setting: the result for `O=C(NCc1cccc(-c2cccc(CN3CCNCC3)c2)c1)c1ccccc1C(F)(F)F` reads 3980 nM; that for `CC(=O)Nc1cccc(C(=O)NCc2cccc(-c3cccc(CN4CCNCC4)c3)c2)c1`, 200 nM. Still for that read-out and setting: the value for `COc1ccc(CNC(=O)c2ccc3c(c2)OCO3)cc1-c1cccc(CN2CCNCC2)c1` was 31.6 nM; that for `O=C(NCc1cccc(-c2cccc(CN3CCNCC3)c2)c1)Nc1ccc2c(c1)OCO2` was 7940 nM. The same measure, in the same setting: the result for `CC1CN(Cc2cccc(-c3cccc(CNC(=O)c4ccc5c(c4)OCO5)c3)c2)CCN1` (stereo unspecified) reads 10 nM.

`O=C(Nc1cccc(-c2cccc(CN3CCNCC3)c2)c1)c1ccc2c(c1)OCO2`: the IC50 is 6310 nM. The same measure, in the same setting: the result for `COc1ccc(-c2cccc(CNC(=O)c3ccc4c(c3)OCO4)c2)cc1CN1CCNCC1` reads 316 nM; that for `O=C1CN(Cc2cccc(-c3cccc(CNC(=O)c4ccc5c(c4)OCO5)c3)c2)CCN1`, greater than 10000 nM; that for `O=S(=O)(NCc1cccc(-c2cccc(CN3CCNCC3)c2)c1)c1ccc2c(c1)OCO2`, 251 nM.

Regarding `O=C(NCc1cccc(-c2cccc(CN3CCNCC3)c2)c1)c1ccc(C(F)(F)F)cc1`, the IC50 is 631 nM. Take `N#Cc1ccccc1C(=O)NCc1cccc(-c2cccc(CN3CCNCC3)c2)c1`: the IC50 is 316 nM.

Take `O=C(NCc1cccc(-c2cccc(CN3C[C@@H]4C[C@H]3CN4)c2)c1)c1ccc2c(c1)OCO2`: the IC50 is 79.4 nM.

For `C[C@H]1CN(Cc2cccc(-c3cccc(CNC(=O)c4ccc5c(c4)OCO5)c3)c2)CCN1`, the IC50 was 5.01 nM. Take `N#Cc1ccc(C(=O)NCc2cccc(-c3cccc(CN4CCNCC4)c3)c2)cc1`: the half-inhibitory concentration (IC50) was 79.4 nM. The same measure, in the same setting: the result for `CN(C)c1cccc(C(=O)NCc2cccc(-c3cccc(CN4CCNCC4)c3)c2)c1` reads 200 nM. `C[C@H]1CN(Cc2cccc(-c3cccc(CNC(=O)c4ccc5c(c4)OCO5)c3)n2)CCN1`: the half-maximal inhibitory concentration (IC50) is 39.8 nM. With `CN1CCCN(Cc2cccc(-c3cccc(CNC(=O)c4ccc5c(c4)OCO5)c3)c2)CC1`, the IC50 is 631 nM.

As to `CN1CCN(Cc2cccc(-c3cccc(CNC(=O)c4ccc5c(c4)OCO5)c3)c2)CC1`, the IC50 was 501 nM.

For `O=C(NCc1cccc(-c2cccc(CN3CCNCC3)c2)c1F)c1ccc2c(c1)OCO2`, the IC50 is 2510 nM.

For the compound `CC(=O)N1CCN(Cc2cccc(-c3cccc(CNC(=O)c4ccc5c(c4)OCO5)c3)c2)CC1`, the 50% inhibitory concentration (IC50) was 3980 nM.

The next data set has as its system Mus musculus. Description: Inhibition of methacholine-induced bronchoconstriction in intranasally dosed BALB/c mouse assessed as enhanced pause pretreated before methacholine challenge. It is filed as functional, organism-based.
Conditions: not given
Turning to `C[C@H]1CN(Cc2cccc(-c3cc(CNC(=O)c4cccc(CC5CCNCC5)c4)ccc3F)c2)CCN1`, the inhibition result was “Active”.
